{
  "source": "patent US20120165403A1",
  "about": "“METHODS OF INHIBITING THE ACTIVITY OF HSP90 AND/OR ARYL HYDROCARBON RECEPTOR” (UNIVERSITY OF ROCHESTER, priority 2004, published 2012)",
  "system": "hsp90",
  "assay": "Affinity chromatography on EGCG-conjugated Sepharose, hsp90 inherent to RRL",
  "assay_type": "binding, rabbit",
  "settings": "immunoblotting",
  "method": "EGCG was conjugated to cyanogen bromide (CNBr)-activated Sepharose (Sigma). EGCG (2.5 mg) was dissolved in 5004 coupling buffer (0.1M NaHCO3, 0.5M NaCl, pH 6.0). CNBr-activated Sepharose was swelled and washed in 1 mM HCl on a sintered glass filter followed by a wash with coupling buffer. CNBr-activated Sepharose beads were added to the EGCG in coupling buffer at a final concentration of 5 mg EGCG/ml of wet gel. The coupling solution containing EGCG and Sepharose was mixed end-over end at 4° C. overnight. Remaining active groups were blocked for 2 h at room temperature in Tris-HCl (0.1M, pH 8). EGCG-conjugated Sepharose was washed with three cycles of alternating pH wash buffers (Buffer 1: 0.1M acetate, 0.5M NaCl, pH4.0; Buffer 2: 0.1M Tris-HCl, 0.5M NaCl, pH 8.0). […]\nApproximately 25 μL of 1:4 diluted RRL containing ^35S-labeled in vitro transcribed protein was incubated with 40 μL of either unconjugated or EGCG-conjugated Sepharose beads in binding buffer (50% slurry). […] Protein was transferred to PVDF membrane (Millipore, Bedford, Mass.). ^35S-labeled AhR, ARNT, p23, XAP2, and hsp90 truncated and point mutants were detected by Phosphoimaging. Hsp90 inherent to RRL was detected by immunoblotting using an anti-hsp90 monoclonal antibody (Stressgen Victoria, BC Canada) followed by secondary antibody coupled to horseradish peroxidase (Jackson Immuno Research, West Grove, Pa.). […]",
  "data": [
    {"molecule": "O=C(O[C@@H]1Cc2c(O)cc(O)cc2O[C@@H]1c1cc(O)c(O)c(O)c1)c1cc(O)c(O)c(O)c1", "note": "[EGCG, epigallocatechin gallate]", "values": [
      {"measurement": "binding of hsp90 to EGCG-Sepharose", "value": "eluted from EGCG-Sepharose"}
    ]}
  ]
}
